According to patent US11806350B2, “Prevention and/or treatment of CNS disorders” (ILDONG PHARMACEUTICAL CO., LTD., priority 2020, dated 2023):

Tests used:
[1] = target: T1, Human recombinant adenosine A1 receptors (Homo sapiens, UniProt P30542); assay: Human adenosine A1 receptor binding assay ([3H]DPCPX); settings: membranes of CHO-K1 cells, 1 nM [3H]DPCPX, 90 minutes at 25° C.; read-out: hAl Ki
T1 construct: expressed in transfected cells; host or cells: CHO-K1 cells (membrane preparation)
T1 sequence (P30542 1-326): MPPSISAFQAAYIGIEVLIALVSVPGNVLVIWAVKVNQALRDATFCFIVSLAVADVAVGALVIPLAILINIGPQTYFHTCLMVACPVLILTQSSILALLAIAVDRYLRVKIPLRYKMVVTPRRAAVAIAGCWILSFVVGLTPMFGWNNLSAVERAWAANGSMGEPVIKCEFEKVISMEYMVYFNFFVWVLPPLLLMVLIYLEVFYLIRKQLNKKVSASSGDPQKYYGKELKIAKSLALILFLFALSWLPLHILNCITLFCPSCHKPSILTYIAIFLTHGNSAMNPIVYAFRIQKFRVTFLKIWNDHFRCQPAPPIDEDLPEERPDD
Procedure: 2.1 Human Adenosine A1 Receptor Binding Assay
Test compound is weighed, dissolved in DMSO to make a stock solution of 10 mM, diluted with DMSO to prepare working solutions, then 100-fold diluted to the indicated concentrations. Human recombinant adenosine A1 receptors expressed in CHO-K1 cells were used to prepare membranes in incubation buffer (20 mM HEPES (4-(2-hydroxyethyl)-1-piperazineethanesulfonic acid) pH 7.4, 10 mM MgCl2, 100 mM NaCl). Test compound or vehicle (2.2 μL) was added in 200 μL of membranes and incubated with 20 μL of 1 nM [^3H] DPCPX (8-cyclopentyl-1,3-dipropylxanthine) for 90 minutes at 25° C. Non-specific binding was estimated in the presence of 100 μM R(−)-PIA ((R)—N-(1-methyl-2-phenylethyl)adenosine). The incubation was stopped by vacuum filtration onto 0.3% PEI (polyethylenimine) presoaked GF/B filters using a harvester followed by four washes with ice-cold 50 mM Tris-HCl, pH 7.4, and the radioactivity on GF/B filtermats counted in a scintillation counter (PerkinElmer Topcount™) to determine [^3H] DPCPX specifically bound. Final concentration of vehicle DMSO is 1%.
(§1) Data is fitted using the non-linear curve fitting routines in Meth-IQ software (ID Business Solutions Ltd., UK). IC50 is converted to Ki by Cheng-Prusoff equation: Ki=IC50/(1+[L]/KD) where [L] is concentration of radiolabeled ligand used in the assay.

[2] = target: T2, Human recombinant adenosine A2A receptors (Homo sapiens, UniProt P29274); assay: Human adenosine A2A receptor binding assay ([3H]CGS-21680); settings: membranes of HEK-293 cells, 50 nM [3H]CGS-21680, 90 minutes at 25° C.; read-out: hA2A Ki
T2 construct: expressed in transfected cells; host or cells: HEK-293 cells (membrane preparation)
Procedure: 2.2 Human Adenosine A2A Receptor Binding Assay
Test compound is weighed, dissolved in DMSO to make a stock solution of 10 mM, diluted with DMSO to prepare working solutions, then 100-fold diluted to the indicated concentrations. Human recombinant adenosine A2A receptors expressed in HEK-293 cells were used to prepare membranes in incubation buffer (50 mM Tris-HCl, pH 7.4, 10 mM MgCl2, 1 mM EDTA, 2 U/ml Adenosine Deaminase). Test compound or vehicle (2.2 μL) was added in 200 μL of membranes and incubated with 20 μL of 50 nM [^3H] […] Non-specific binding was estimated in the presence of 50 μM NECA (5′-N-ethylcarboxamidoadenosine). The incubation was stopped by vacuum filtration onto 0.3% PEI (polyethylenimine) presoaked GF/B filters using a harvester followed by four washes with ice-cold 50 mM Tris-HCl, pH 7.4, and the radioactivity on GF/B filtermats counted in a scintillation counter (PerkinElmer TOPCOUNT™) to determine [^3H] […] Final concentration of vehicle DMSO is 1%.
as §1

[3] = tested on: unilateral 6-hydroxydopamine (6-OHDA) lesion animal model of Parkinson's Disease; assay: Axial, limb and orolingual abnormal involuntary movement scores (ALO AIMs) in 6-OHDA lesioned, L-DOPA primed rats; assay type: in vivo, Wistar Han rats; settings: after 4 days L-DOPA priming wash out; per oral (1-30 mg/kg) or intranasal (0.3-10 mg/kg); FIG. 2B
Procedure: (§2) To generate animal model of Parkinson's Disease (PD), a number of 67 female Wistar Han rats of approximately 9 weeks of age received unilateral 6-hydroxydopamine (6-OHDA) lesion. To induce the 6-OHDA lesion, each of the animals received one injection with 2 μl (4 μg/μl) in the medial forebrain bundle (MFB). 6-OHDA is widely used to lesion the nigrostriatal dopaminergic system as a model of PD.
(§3) Three weeks after the injections, cylinder test for the evaluation of locomotor asymmetry was performed to determine the efficacy of the 6-OHDA lesion (4 animals died before testing). Based on the results of the cylinder test, 6-OHDA lesioned animals were further included in the study. In compound standalone testing groups (B+C), animals (n=52) were received L-DOPA (Levodopa or L-3,4-dihydroxyphenylalanine) priming (2 animals died before group allocation). Animals (n=11) not showing symptoms were eliminated without any further administration of test compounds or tissue collection. […]
ALO test was performed on treatment days (4 days after end of L-DOPA priming) with all animals used for the compound stand alone testing. ALO AIMs were scored starting 5 min […] after the vehicle, L-DOPA/Benserazide and IN administration of the test compound, and 2h (+/−5 min) after PO administration of the test compound and every 20 min thereafter for 3 h. […]
ALO AIMs were scored for 1 min, every 20 min for 180 min. […]

[4] = tested on: unilateral 6-hydroxydopamine (6-OHDA) lesion animal model of Parkinson's Disease; assay: Cylinder test (forelimb use asymmetry) in 6-OHDA lesioned rats; assay type: in vivo, Wistar Han rats
Procedure: as §2
as §3, with “allocation).” for “allocation). Animals (n=11) not showing symptoms were eliminated without any further administration of test compounds or tissue collection.”
Cylinder test was performed on treatment days (4 days after end of L-DOPA priming) with all animals used for testing. […] Each animal was individually evaluated for 5 minutes. The number of contacts on the cylinder wall with the right paw, left and both paws simultaneously were counted. The results were given in percentage and calculating is done as follows: the test total sum of contacts on the cylinder wall with the right paw, left paw and both totaled 100%, based on this, a percentage value for each finding was calculated (Araujo, 2013).

T2 sequence (P29274 whole entry): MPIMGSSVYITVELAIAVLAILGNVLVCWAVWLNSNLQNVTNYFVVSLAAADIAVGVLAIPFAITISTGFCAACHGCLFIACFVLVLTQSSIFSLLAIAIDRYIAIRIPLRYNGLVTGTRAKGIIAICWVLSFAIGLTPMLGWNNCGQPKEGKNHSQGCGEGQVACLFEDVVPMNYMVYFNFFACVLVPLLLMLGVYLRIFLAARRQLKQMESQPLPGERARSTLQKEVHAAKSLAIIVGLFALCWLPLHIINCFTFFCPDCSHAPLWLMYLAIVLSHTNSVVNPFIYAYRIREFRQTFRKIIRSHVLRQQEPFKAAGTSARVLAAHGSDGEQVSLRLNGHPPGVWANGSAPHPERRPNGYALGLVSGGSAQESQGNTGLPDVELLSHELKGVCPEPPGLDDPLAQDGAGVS

## N#Cc1cccc(-c2nc(N)nc3c2cnn3Cc2ccc(N)c(C(F)(F)F)c2)c1 [Compound 210, 3-(6-amino-1-(4-amino-3-(trifluoromethyl)benzyl)-1H-pyrazolo[3,4-d]pyrimidine-4-yl)benzonitrile]
[1]
  Ki: ≤ 100 nM
[2]
  Ki: < 20 nM
[3]
  L-DOPA/Benserazide induced dyskinesia-like side effects (ALO AIM scores): did not induce L-DOPA/Benserazide induced dyskinesia-like side effects
[4]; IN route and PO route, compared to the vehicle treated group, FIGS. 3A, 3B
  contralateral limb usage in cylinder test: concentration related trend towards increased contralateral limb usage
[4]; intranasal administration compared to the PO administration group
  contralateral limb usage in cylinder test, intranasal compared to PO administration: more pronounced concentration related trend
